Entries after “also recorded” stand apart in the source; their conditions may differ. Like-named read-outs stand apart in the source and are kept apart here.
Key:
F100R cells = test: Cell growth assay, type 1 resistant F100R cells; assay type: cell-based; details: GDC-0449, type 1 resistant F100R cells
[1] = reported according to Roche; cited from earlier work
F10R cells = test: Cell number / growth assay, F10R resistant cells; assay type: cell-based
Description: (§1) (FIG. 6). Gli-1 knockdown experiments were performed in parallel.

eIF4E = target: T1, eIF4E (Homo sapiens, UniProt P06730); test: Immunoprecipitation of labelled (3H/14C) ribavirin with eIF4E in living cells; assay type: binding
T1 construct: endogenous in cells; host or cells: parental FaDu, F10R and F100R resistant cells
Description: In total, it appears that these AML specimens have developed an “oncogene addiction” to eIF4E making them more sensitive to inhibition of eIF4E than specimens with normal eIF4E levels.
It was determined whether ^14C-ribavirin could immunoprecipitate with eIF4E in the F10R and F100R resistant cell lines.
Cells were treated for 24 hours with ^14C-ribavirin followed by cross-linking and immunoprecipitation and evaluated relative to IgG controls.

Parental FaDu cells = test: Cell number / growth assay, parental FaDu cells; assay type: cell-based
Description: as §1

ENT1 = ENT1 RNA levels in patients (RT-qPCR); assay type: in vivo, human; details: Patient 10 (BR), four cycles
Description: Results from RT-qPCR are normalised against multiple genes to ensure no changes in the normalised occurred as described.

[2] = tested on: FaDu and THP1 cells and resistant F10R, F100R, T10R, T20R cell lines; test: Uptake of 3H-ribavirin in parental and resistant cell lines; assay type: cell-based; details: 0 to 16 hours
Gli-1 mRNA = Gli-1 mRNA levels in patient specimens (qRT-PCR); assay type: in vivo, human; details: two patients that did not respond (PD)
Excerpt: For responding patients, in all cases Gli-1 mRNA levels were higher at resistance than during response.
The molecular features identified in present studies were examined to determine whether they were relevant to specimens from patients that received ribavirin monotherapy in the multi-centre phase II AML trial. For responding patients, all available specimens before treatment were monitored, during clinical response, upon the onset of relapse and in non-responders when possible. A total of ten specimens were examined including those from patients that enrolled in the monotherapy trial. Results from the trial, when closed, were 1 CR, 2 PR, 3 BR, 6 SD, 3 PD with 15 evaluable patients (Clinicaltrials.gov). Of these, samples from 10 patients were available for evaluation of molecular response. […] Gli-1 mRNA levels were monitored using qRT-PCR. […] (See above table).

[3] = tested on: FaDu and THP1 cells and resistant F10R, F100R, T10R, T20R cell lines; details: previous studies; cited from earlier work
[4] = tested on: relapsed/refractory M4/M5 AML
Description: The molecular features identified in present studies were examined to determine whether they were relevant to specimens from patients that received ribavirin monotherapy in the multi-centre phase II AML trial. For responding patients, all available specimens before treatment were monitored, during clinical response, upon the onset of relapse and in non-responders when possible. A total of ten specimens were examined including those from patients that enrolled in the monotherapy trial. […] Of these, samples from 10 patients were available for evaluation of molecular response. […] Gli-1 mRNA levels were monitored using qRT-PCR.

cyclin D1 and VEGF = test: Protein levels of eIF4E export and translation targets as a function of ribavirin treatment; assay type: cell-based
MDR1 = MDR1 levels in patients; assay type: in vivo, human; details: Patient 10 (BR), four cycles
eIF4E gene product = target: T2, eIF4E gene product (Homo sapiens, UniProt P06730); test: Molecular analysis of eIF4E gene product activity in trial patients; assay type: in vivo; details: after 28 days of oral ribavirin, monotherapy trial
T2 construct: from tissue; host or cells: leukemia specimens of AML patients in the clinical trials
T2 sequence (P06730 whole entry): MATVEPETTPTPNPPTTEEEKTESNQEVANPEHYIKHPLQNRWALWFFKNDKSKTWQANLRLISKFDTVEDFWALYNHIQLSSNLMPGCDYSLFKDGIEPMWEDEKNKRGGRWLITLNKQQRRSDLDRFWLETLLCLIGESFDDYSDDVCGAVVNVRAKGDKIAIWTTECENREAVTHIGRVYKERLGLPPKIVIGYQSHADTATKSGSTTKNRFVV
Excerpt: In terms of clinical response, 1 CR (complete remission), 2 PR (partial remission), 3 BR (blast response), 6 SD (stable disease), 3PD (progressive disease) were observed out of 15 evaluable patients. […] A biphasic molecular response was observed, where initially the eIF4E gene product was dramatically re-distributed to the cytoplasm in patients that responded. This was followed by a drop in eIF4E RNA and protein levels (up to one 28 day cycle).

[5] = tested on: Gli-1 overexpressing cells; test: Cell number assay, Gli-1 overexpressing FaDu cells; assay type: cell-based; details: 20 μM ribavirin
Description: as §1

[6] = tested on: ENT1, ADK or Gli-1 levels; test: Deep sequencing of 10R cells during ribavirin treatment; assay type: cell-based
Description: All deep sequencing in resistant cells is done in the absence of ribavirin.

CS(=O)(=O)c1ccc(C(=O)Nc2ccc(Cl)c(-c3ccccn3)c2)c(Cl)c1 [GDC-0449]
growth (F100R cells): no effect
plasma levels [1]: 3 nM
growth (F10R cells; 3 nM GDC-0449 alone, F10R cells): did not affect
ribavirin binding to eIF4E after GDC-0449 treatment (eIF4E; F10R cells): increase in ribavirin binding to eIF4E
reduction in growth (Parental FaDu cells; 3 nM GDC-0449 alone): 25%

NC(=O)c1ncn([C@@H]2O[C@H](CO)[C@@H](O)[C@H]2O)n1 [ribavirin, 1-[(2R,3R,4S,5R)-3,4-dihydroxy-5-(hydroxymethyl)oxolan-2-yl]-1H-1,2,4-triazole-3-carboxamide]
reduction in ENT1 levels at relapse (ENT1): 3 fold
3H-ribavirin uptake ([2]; F10R cells): indistinguishable from parental FaDu cells
3H-ribavirin uptake ([2]; F100R, T10R and T20R cell lines): severe defects in ribavirin uptake
Gli-1 levels after 28 days of ribavirin (Gli-1 mRNA): not lowered
time of maximal uptake after ribavirin treatment [3]: 8 to 10 h
number of patients with BR (blast response) ([4]; out of 15 evaluable patients): 3
number of patients with CR (complete remission) ([4]; out of 15 evaluable patients): 1
number of patients with PD (progressive disease) ([4]; out of 15 evaluable patients): 3
number of patients with PR (partial remission) ([4]; out of 15 evaluable patients): 2
number of patients with SD (stable disease) ([4]; out of 15 evaluable patients): 6
drop in blasts ([4]; patient 18 (SD), during response): 20%
cell numbers as % of the same cells without ribavirin (F10R cells; 20 μM ribavirin, RNAi knockdown of Gli-1 in F10R cells): about 50%
growth (F10R cells; 20 μM ribavirin, siRNA luciferase treated F10R cells): unaffected
protein levels of cyclin D1 and VEGF (cyclin D1 and VEGF; parental cell lines): reduces levels of these proteins
protein levels of cyclin D1 and VEGF (cyclin D1 and VEGF; resistant cell lines): no longer affects these
immunoprecipitation of 14C ribavirin with eIF4E (eIF4E; F10R cell line): does not immunoprecipitate with eIF4E; also recorded: did not immunoprecipitate
immunoprecipitation of 14C ribavirin with eIF4E (eIF4E; F100R cell line): does not immunoprecipitate with eIF4E
increase in MDR1 at relapse (MDR1): 17 fold
mRNA export activity of the eIF4E gene product (eIF4E gene product): substantially reduced
decrease in cell number (Parental FaDu cells; 10 μM ribavirin for 96 hours): about 50%
reduction of cell number (Parental FaDu cells; 20 μM ribavirin): 50%
change of plasma ribavirin levels (CR patient of combination trial after Ara-C lowered to 10 mg/day): near doubling
ribavirin plasma levels (combination trial with subcutaneous low dose Ara-C): 4 to 10 µM
ribavirin plasma levels (monotherapy trial, 2000 mg/day): 20 to 30 µM
ribavirin plasma levels (monotherapy trial, 2800 mg/day): 20 µM
cell number as % of the untreated Gli-1 overexpressing cells [5]: 95%
ENT1, ADK or Gli-1 levels on addition of ribavirin [6]: did not alter
